Measured values as given in patent US6555576B1, “Method for treating exercise induced asthma” (SmithKline Beecham Corporation, priority 1999, dated 2003).

Legend:
[1] = target: T1, high affinity rolipram binding site of PDE 4 (HPDE 4); test: [3H]-rolipram binding assay (high affinity site); conditions: competition with 1 nM [3H]-rolipram, rat brain high speed supernatants, 1 hour at 30° C.
T1 construct: Rat brain high speed supernatants were used as a source of protein
Method: Rat brain high speed supernatants were used as a source of protein. […] The assay was run for 1hour at 30° C. The reaction was terminated and bound ligand was separated from free ligand using a Brandel cell harvester. Competition for the high affinity binding site was assessed under conditions that were identical to those used for measuring low affinity PDE activity, expect that [^3H]-cAMP was not present.

[2] = system: low affinity form of PDE 4 (LPDE 4); test: PDE 4 catalytic activity assay (low affinity form); assay type: biochemical, human; conditions: HPDE 4 IC50 divided by LPDE 4 IC50
Method: Consequently, inhibition of recombinant PDE 4 catalytic activity primarily reflects the actions of compounds at LPDE 4. Inhibition of PDE 4 catalytic activity can thus be used as an index of the potency of compounds at LPDE 4.
Isolated human monocyte PDE 4 and hrPDE 4 was determined to exist primarily in the low affinity form.

acid secretion = conditions: rats, particularly in combination with an activator of adenylate cyclase such as histamine; cited from earlier work
patients with EIA = test: Exercise challenge study in patients with EIA; assay type: in vivo, human
Method: A randomized, double-blind, placebo-controlled, two-period cross-over study was conducted to assess the efficacy, safety and tolerability of cis-[4-cyano-4-(3-cyclopentyloxy-4-methoxyphenyl)cyclohexan-1-carboxylate] in patients with EIA. 27 patients with EIA were randomized to receive the compound, 10 mg BID immediate release tablet or placebo, for 7 days followed by a 7 day washout and the alternate treatment for 7 days. Exercise challenge tests were performed after a single dose on day 1, and again on day 7 (pre-dose and three hours post-dose).
The patient population consisted of non-smoking men or women, ages 18 to 60 years with EIA such that:
a) their forced expiratory volume in one second (FEV1) was greater than or equal to 70% of predicted normal,
b) the documented fall in FEV1 was greater than or equal to 15% in response to exercise testing at a screening visit, and
c) they were not taking inhaled corticosteroids or other controller medications for asthma.
The Exercise Challenge Protocol was as follows. Patients were exercised on a motorized treadmill for six minutes at target heart rate. Speed and inclination were adjusted to achieve a target heart rate for each patient of 85% of age-adjusted maximum predicted. Patients breathed compressed air (0% humidity at room temperature) during the test through a face mask. Pulmonary function tests (KoKo pneumotach) were performed 1, 5, 10, 15, 20, 30 and 45 minutes after completion of the test and continued thereafter if FEV1 had not returned to within 10% of the baseline.
The primary efficacy variable was the maximum percentage decrease (MPD) in the FEV1 in response to exercise. The results indicated significant improvement in MPD FEV1 after one dose of the compound, from a mean MPD of 32.88% to 23.57%. There was an incremental effect of the compound after 7 days of dosing with further improvement in mean MPD FEV1 to 21.8%. […] See also, Am. J. Resp. Crit. Care Med. 1998:157; A413, incorporated herein in its entirety by reference.

[3] = human, in vivo; cited from earlier work

COc1ccc(C2CN(Cc3ccc(N)cc3)C(=O)N2)cc1OC1CCCC1 (stereo not drawn) [1-(4-aminobenzyl)-4-(3-cyclopentyloxy-4-methoxyphenyl)-2-imidazolidinone]
IC50 [1]: 100 nM | High/Low Ratio (IC50 high affinity / IC50 low affinity) [2]: 0.07

COc1ccc(C2CCC(c3nnn[nH]3)C2)cc1OC1CCCC1 (stereo not drawn) [1-(5-tetrazole)-3-(3-cyclopentyloxy-4-methoxyphenyl)cyclopentane]
High/Low Ratio (IC50 high affinity / IC50 low affinity) [2]: 0.0018

COc1ccc(C2CCN(Cc3ccc(NC(=NC#N)SC)cc3)C2=O)cc1OC1CCCC1 (stereo not drawn) [3-(cyclopentyl-oxy-4-methoxyphenyl)-1-(4-N′-[N2-cyano-S-methyl-isothioureido]benzyl)-2-pyrrolidone]
High/Low Ratio (IC50 high affinity / IC50 low affinity) [2]: 0.30

CCOC(=O)C=C1C[C@H](c2ccc(OC)c(OC3CCCC3)c2)CN1 [(R)-(+)-ethyl [4-(3-cyclopentyloxy-4-methoxyphenyl)pyrrolidine-2-ylidene]acetate]
High/Low Ratio (IC50 high affinity / IC50 low affinity) [2]: 2.143

CCOC(=O)C=C1C[C@@H](c2ccc(OC)c(OC3CCCC3)c2)CN1 [(S)-(−)-ethyl [4-(3-cyclopentyloxy-4-methoxyphenyl)pyrrolidine-2-ylidene]acetate]
High/Low Ratio (IC50 high affinity / IC50 low affinity) [2]: .98

CC(C)Cn1c(=O)n(C)c(=O)c2[nH]cnc21 [IBMX, reference compound]
High/Low Ratio (IC50 high affinity / IC50 low affinity) [2]: 0.698

NC(=O)C(=O)NCCc1ccc(OC(F)F)c(OC(F)F)c1 [N-[2-(3,4-bisdifluoromethoxy-phenyl)ethyl]oxamide]
IC50 [1]: 400 nM | High/Low Ratio (IC50 high affinity / IC50 low affinity) [2]: 0.25

COc1ccc(CCNC(=O)C(N)=O)cc1OC1CCCC1 [N-[2-(3-cyclopentyloxy-4-methoxyphenyl)ethyl]oxamide]
High/Low Ratio (IC50 high affinity / IC50 low affinity) [2]: 0.013

CCCCOc1cc(CC2CNC(=O)N2)ccc1OC (stereo not drawn) [Ro 20-1724, reference compound]
effect on acid secretion (acid secretion): enhance acid secretion | IC50 [1]: 190 nM

COc1ccc(C2(C#N)CCC(C(=O)O)CC2)cc1OC1CCCC1 (stereo not drawn) [cis-[4-cyano-4-(3-cyclopentyloxy-4-methoxyphenyl)cyclohexan-1-carboxylate]]
safety and tolerability (patients with EIA; 10 mg BID for 7 days, patients with EIA): safe and well tolerated, with no treatment-related serious adverse experiences or withdrawals | effects in humans suffering from EIA (patients with EIA; administered to humans suffering from EIA): reduced inflammation, bronchodilation and pulmonary neuromodulation | mean maximum percentage decrease (MPD) in FEV1 in response to exercise (patients with EIA; after 7 days of dosing, 10 mg BID): 21.8% | mean maximum percentage decrease (MPD) in FEV1 in response to exercise (patients with EIA; after one dose, 10 mg immediate release tablet, improved from mean MPD of 32.88%): 23.57% | patients with a fall in FEV1 of less than or equal to 15% after exercise (patients with EIA; after one week of treatment, 10 mg BID): 40%

CCCCn1c(=O)c2c(ncn2CC(C)=O)n(CCCC)c1=O [denbufylline, 7-acetonyl, 1,3-dibutyixanthine]
side effects in clinical studies [3]: may include pyrosis, nausea and emesis

OCCN(CCO)c1nc(N2CCCCC2)c2nc(N(CCO)CCO)nc(N3CCCCC3)c2n1 [dipyridamole, 2,2′,2″,2′-[(4,8-dipiperldinopyrimido[5,4-d]pyrmidine-2-6-diyl)dinitrilo]tetraethanol, reference compound]
High/Low Ratio (IC50 high affinity / IC50 low affinity) [2]: 6.25

COc1ccc(C2CNC(=O)C2)cc1OC1CCCC1 (stereo not drawn) [rolipram]
effect on acid secretion (acid secretion): enhance acid secretion | side effects in clinical studies [3]: has psychotropic activity and produces gastrointestinal effects, e.g., pyrosis, nausea and emesis
